According to PubChem BioAssay AID1918956 (Molecular Pharmacology Branch, DTP, NCI, 2023):

Tested on: OVCAR-5 complex spheroids, viability
Assay: Anticancer human tumor OVCAR-5 cell line growth inhibition;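 further: spheroids exposed to agents for seven days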;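 on viability, T/C: 100% = DMSO vehicle control wells viability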
Conditions: for IC50: curve of first compound; for viability, T/C: stronger effect = lower value
How it was run: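 Multicellular complex spheroids of tumor cells with human endothelial cells (HUVEC) and mesenchymal stem cells; the LSD1 inhibitor iadademstat was combined with standard-of-care or investigational agents. Top concentration at or near clinical Cmax, half-log dilutions; final DMSO ≤0.25%.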

[1] = second compound 0.1 µM, first compound 0.00316 µM
[2] = second compound 0.1 µM, first compound 0.01 µM
[3] = second compound 0.1 µM, first compound 0.0316 µM
[4] = second compound 0.1 µM, first compound 0.1 µM
[5] = second compound 0.1 µM, first compound 0.316 µM
[6] = second compound 0.1 µM, first compound 1 µM
[7] = second compound 0.316 µM, first compound 0.00316 µM
[8] = second compound 0.316 µM, first compound 0.01 µM
[9] = second compound 0.316 µM, first compound 0.0316 µM
[10] = second compound 0.316 µM, first compound 0.1 µM
[11] = second compound 0.316 µM, first compound 0.316 µM
[12] = second compound 0.316 µM, first compound 1 µM
[13] = second compound 1 µM, first compound 0.00316 µM
[14] = second compound 1 µM, first compound 0.01 µM
[15] = second compound 1 µM, first compound 0.0316 µM
[16] = second compound 1 µM, first compound 0.1 µM
[17] = second compound 1 µM, first compound 0.316 µM
[18] = second compound 1 µM, first compound 1 µM
[19] = second compound 3.16 µM, first compound 0.00316 µM
[20] = second compound 3.16 µM, first compound 0.01 µM
[21] = second compound 3.16 µM, first compound 0.0316 µM
[22] = second compound 3.16 µM, first compound 0.1 µM
[23] = second compound 3.16 µM, first compound 0.316 µM
[24] = second compound 3.16 µM, first compound 1 µM
[25] = second compound 10 µM, first compound 0.00316 µM
[26] = second compound 10 µM, first compound 0.01 µM
[27] = second compound 10 µM, first compound 0.0316 µM
[28] = second compound 10 µM, first compound 0.1 µM
[29] = second compound 10 µM, first compound 0.316 µM
[30] = second compound 10 µM, first compound 1 µM

SMILES	IC50 (second compound 0.1 µM)	IC50 (second compound 0.316 µM)	IC50 (second compound 1 µM)	IC50 (second compound 3.16 µM)	IC50 (second compound 10 µM)	viability, T/C [3]	viability, T/C [4]	viability, T/C [5]	viability, T/C [6]	viability, T/C [9]	viability, T/C [10]	viability, T/C [11]	viability, T/C [12]	viability, T/C [15]	viability, T/C [16]	viability, T/C [17]	viability, T/C [18]	viability, T/C [21]	viability, T/C [22]	viability, T/C [23]	further results
O=C(C=Cn1cnc(-c2cc(C(F)(F)F)cc(C(F)(F)F)c2)n1)NNc1cnccn1 + NC1CC1c1ccc(-c2cccc(O)c2)cc1	55.6 nM	50.5 nM	39.1 nM	23 nM	19.8 nM	57.2%	42.1%	38%	33.9%	54.9%	42.2%	39.1%	34.4%	53.8%	39.4%	36.2%	31.7%	43.1%	38.5%	34.7%	viability, T/C [1]: 88.9%; viability, T/C [2]: 73.9%; viability, T/C [7]: 87.8%; viability, T/C [8]: 72%; viability, T/C [13]: 84%; viability, T/C [14]: 65.9%; viability, T/C [19]: 81.7%; viability, T/C [20]: 62.9%; viability, T/C [24]: 29.7%; viability, T/C [25]: 79%; viability, T/C [26]: 60.8%; viability, T/C [27]: 42.6%; viability, T/C [28]: 36.6%; viability, T/C [29]: 33.6%; viability, T/C [30]: 35.2%
COc1cc(Nc2ncc3c(n2)-c2ccc(Cl)cc2C(c2c(F)cccc2OC)=NC3)ccc1C(=O)O + NC1CC1c1ccc(-c2cccc(O)c2)cc1	86.2 nM	98.9 nM	62.3 nM	54.5 nM	47.7 nM	60.4%	47.3%	47.1%	39.8%	63.9%	50.1%	49.6%	44.6%	57.4%	46.4%	47.8%	40.1%	53.6%	46.1%	44.3%	viability, T/C [1]: 76.9%; viability, T/C [2]: 73.1%; viability, T/C [7]: 88.9%; viability, T/C [8]: 84.4%; viability, T/C [13]: 76.1%; viability, T/C [14]: 82.1%; viability, T/C [19]: 81.3%; viability, T/C [20]: 72%; viability, T/C [24]: 42.1%; viability, T/C [25]: 87.6%; viability, T/C [26]: 72%; viability, T/C [27]: 50.7%; viability, T/C [28]: 50.3%; viability, T/C [29]: 49.7%; viability, T/C [30]: 43.7%
CC1COCCN1c1cc(C2(S(C)(=N)=O)CC2)nc(-c2ccnc3[nH]ccc23)n1 (stereo not given) + NC1CCC(NC2CC2c2ccccc2)CC1	2530 nM	2620 nM	3030 nM	2700 nM	2200 nM	102%	116%	97.7%	69.9%	108%	103%	94.7%	70%	109%	99.5%	97.8%	70.9%	104%	106%	97%	viability, T/C (second compound 0.1 µM, first compound 3.16 µM): 47.4%; viability, T/C (second compound 0.1 µM, first compound 10 µM): 35.6%; viability, T/C (second compound 0.316 µM, first compound 3.16 µM): 45.8%; viability, T/C (second compound 0.316 µM, first compound 10 µM): 37.2%; viability, T/C (second compound 1 µM, first compound 3.16 µM): 50.5%; viability, T/C (second compound 1 µM, first compound 10 µM): 36%; viability, T/C [24]: 70.2%; viability, T/C (second compound 3.16 µM, first compound 3.16 µM): 48.4%; viability, T/C (second compound 3.16 µM, first compound 10 µM): 37.1%; viability, T/C [27]: 84%; viability, T/C [28]: 82.4%; viability, T/C [29]: 79.2%; viability, T/C [30]: 61.3%; viability, T/C (second compound 10 µM, first compound 3.16 µM): 45.3%; viability, T/C (second compound 10 µM, first compound 10 µM): 34%
